Experimental data published in US20240150369A1, “CYCLIN-DEPENDENT KINASE INHIBITING COMPOUNDS FOR THE TREATMENT OF MEDICAL DISORDERS” (G1 Therapeutics, Inc., priority 2020, published 2024).
pIC50: −log10 of the molar value.

Experiments:
Format in all cases: biochemical
CDK1/Cyclin B1 = CDK1/Cyclin B1 (Homo sapiens (Human), UniProt P06493); test: CDK1/Cyclin B1 kinase assay (Nanosyn, Caliper microfluidic); details: 12-point dose-response, singlicate, at Km for ATP; ATP 40 μM; 3 hr
Experimental: (§1) Selected compounds disclosed herein were tested in kinase assays by Nanosyn (Santa Clara, CA) to determine their inhibitory effect on these CDKs. The assays were performed using microfluidic kinase detection technology (Caliper Assay Platform). The compounds were tested in 12-point dose-response format in singlicate at Km for ATP. Specifics of each assay are as described below:
CDK1/Cyclin B1: Enzyme concentration: 0.08 nM; ATP concentration: 40 μM; Incubation time: 3 hr.

CDK2/Cyclin E = CDK2/Cyclin E (Homo sapiens (Human), UniProt P24941); test: CDK2/Cyclin E kinase assay (Nanosyn, Caliper microfluidic); details: 12-point dose-response, singlicate, at Km for ATP; ATP 100 μM; 3 hr
Experimental: as §1
CDK2/Cyclin E: Enzyme concentration: 0.15 nM; ATP concentration: 100 μM; Incubation time: 3 hr.

CDK7 = CDK7 (Homo sapiens (Human), UniProt P50613); test: CDK7 kinase assay (Nanosyn, Caliper microfluidic); details: 12-point dose-response, singlicate, at Km for ATP
Sequence of CDK7 (P50613 whole entry): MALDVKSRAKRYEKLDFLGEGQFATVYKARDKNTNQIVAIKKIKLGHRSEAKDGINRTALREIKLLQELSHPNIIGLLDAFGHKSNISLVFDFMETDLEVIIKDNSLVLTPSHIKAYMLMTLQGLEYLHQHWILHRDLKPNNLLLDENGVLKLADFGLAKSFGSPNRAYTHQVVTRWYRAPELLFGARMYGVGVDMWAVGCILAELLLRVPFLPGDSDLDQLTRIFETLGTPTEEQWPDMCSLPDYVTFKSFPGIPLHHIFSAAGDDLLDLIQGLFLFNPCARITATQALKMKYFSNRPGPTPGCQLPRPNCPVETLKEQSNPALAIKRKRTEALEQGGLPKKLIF
Sequence of CDK7 (P51946 whole entry partner): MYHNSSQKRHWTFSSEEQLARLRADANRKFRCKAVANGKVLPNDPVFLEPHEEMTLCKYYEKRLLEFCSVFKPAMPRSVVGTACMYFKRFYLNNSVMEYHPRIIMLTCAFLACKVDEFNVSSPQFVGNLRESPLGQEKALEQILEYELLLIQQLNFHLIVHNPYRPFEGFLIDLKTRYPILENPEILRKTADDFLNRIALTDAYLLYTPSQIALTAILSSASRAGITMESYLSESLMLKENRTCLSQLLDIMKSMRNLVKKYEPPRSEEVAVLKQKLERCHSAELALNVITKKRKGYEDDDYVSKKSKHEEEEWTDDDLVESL
Sequence of CDK7 (P51948 whole entry partner): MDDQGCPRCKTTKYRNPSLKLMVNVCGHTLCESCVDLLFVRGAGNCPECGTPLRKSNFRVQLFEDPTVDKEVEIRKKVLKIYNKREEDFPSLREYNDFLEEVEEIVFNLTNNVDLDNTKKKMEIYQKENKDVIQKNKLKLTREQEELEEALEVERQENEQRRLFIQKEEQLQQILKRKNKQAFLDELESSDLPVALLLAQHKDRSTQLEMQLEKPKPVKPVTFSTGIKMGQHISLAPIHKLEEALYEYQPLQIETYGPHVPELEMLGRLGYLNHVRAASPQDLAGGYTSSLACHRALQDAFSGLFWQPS
Experimental: as §1, with “ATP.” for “ATP. Specifics of each assay are as described below:”

CDK2/Cyclin A = CDK2/Cyclin A (Homo sapiens (Human), UniProt P24941); test: CDK2/Cyclin A kinase assay (Nanosyn, Caliper microfluidic); details: 12-point dose-response, singlicate, at Km for ATP; ATP 50 μM; 3 hr
Experimental: as §1
CDK2/Cyclin A: Enzyme concentration: 0.1 nM; ATP concentration: 50 μM; Incubation time: 3 hr.

CDK3-CYCLIN-E = CDK3-CYCLIN-E (Homo sapiens (Human), UniProt Q00526); test: CDK3-Cyclin-E kinase assay (Nanosyn, Caliper microfluidic); details: 12-point dose-response, singlicate, at Km for ATP
Experimental: as §1, with “ATP.” for “ATP. Specifics of each assay are as described below:”

CDK5-p25 = CDK5-p25 (Homo sapiens (Human), UniProt Q00535); test: CDK5-p25 kinase assay (Nanosyn, Caliper microfluidic); details: 12-point dose-response, singlicate, at Km for ATP
Sequence of CDK5-p25 (Q00535 whole entry): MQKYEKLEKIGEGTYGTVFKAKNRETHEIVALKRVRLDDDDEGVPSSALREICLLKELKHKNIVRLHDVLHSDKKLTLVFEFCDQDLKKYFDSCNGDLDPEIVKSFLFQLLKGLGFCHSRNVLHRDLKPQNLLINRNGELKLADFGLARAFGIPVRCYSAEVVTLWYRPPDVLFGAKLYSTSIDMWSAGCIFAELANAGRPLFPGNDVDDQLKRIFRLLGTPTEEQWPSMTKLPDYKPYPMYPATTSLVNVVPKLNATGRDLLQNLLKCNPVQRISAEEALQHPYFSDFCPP
Sequence of CDK5-p25 (Q15078 99-307 partner): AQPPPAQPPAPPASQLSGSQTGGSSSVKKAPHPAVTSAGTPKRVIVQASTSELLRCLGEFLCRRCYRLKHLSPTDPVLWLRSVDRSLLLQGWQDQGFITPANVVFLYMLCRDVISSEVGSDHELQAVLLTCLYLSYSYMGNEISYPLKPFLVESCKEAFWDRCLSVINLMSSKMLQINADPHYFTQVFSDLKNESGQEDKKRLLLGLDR
Experimental: as §1, with “ATP.” for “ATP. Specifics of each assay are as described below:”

CDK9/Cyclin T1 = CDK9/Cyclin T1 (Homo sapiens (Human), UniProt P50750); test: CDK9/Cyclin T1 kinase assay (Nanosyn, Caliper microfluidic); details: 12-point dose-response, singlicate, at Km for ATP; ATP 10 μM; 17 hr
Sequence of CDK9/Cyclin T1 (P50750 whole entry): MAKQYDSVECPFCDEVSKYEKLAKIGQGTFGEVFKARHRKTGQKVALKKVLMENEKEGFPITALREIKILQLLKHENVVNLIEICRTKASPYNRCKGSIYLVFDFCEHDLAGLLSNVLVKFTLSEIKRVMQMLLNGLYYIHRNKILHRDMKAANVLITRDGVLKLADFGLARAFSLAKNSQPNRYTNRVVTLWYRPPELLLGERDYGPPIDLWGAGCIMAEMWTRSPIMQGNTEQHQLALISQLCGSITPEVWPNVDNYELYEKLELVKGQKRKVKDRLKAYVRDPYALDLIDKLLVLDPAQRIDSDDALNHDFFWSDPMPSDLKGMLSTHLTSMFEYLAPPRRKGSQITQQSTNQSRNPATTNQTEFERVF
Sequence of CDK9/Cyclin T1 (O60563 whole entry partner): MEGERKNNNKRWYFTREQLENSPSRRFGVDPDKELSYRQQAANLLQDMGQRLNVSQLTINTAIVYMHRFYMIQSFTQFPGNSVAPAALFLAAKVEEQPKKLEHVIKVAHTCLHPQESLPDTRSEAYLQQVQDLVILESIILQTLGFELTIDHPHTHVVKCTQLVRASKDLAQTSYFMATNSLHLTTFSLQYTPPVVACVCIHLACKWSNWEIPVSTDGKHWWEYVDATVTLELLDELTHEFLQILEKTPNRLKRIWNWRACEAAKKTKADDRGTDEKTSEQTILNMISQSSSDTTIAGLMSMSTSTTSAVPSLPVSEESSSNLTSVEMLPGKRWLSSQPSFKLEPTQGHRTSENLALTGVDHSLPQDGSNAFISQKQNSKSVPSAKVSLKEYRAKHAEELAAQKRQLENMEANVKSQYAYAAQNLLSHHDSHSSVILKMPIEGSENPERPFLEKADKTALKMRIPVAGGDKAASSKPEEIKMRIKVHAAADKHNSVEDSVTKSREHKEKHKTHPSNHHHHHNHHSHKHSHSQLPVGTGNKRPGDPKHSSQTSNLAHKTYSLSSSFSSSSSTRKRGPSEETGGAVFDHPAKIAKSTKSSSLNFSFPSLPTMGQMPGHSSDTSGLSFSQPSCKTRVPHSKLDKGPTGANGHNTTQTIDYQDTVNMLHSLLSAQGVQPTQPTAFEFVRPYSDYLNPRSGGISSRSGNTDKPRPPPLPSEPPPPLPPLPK
Experimental: as §1
CDK9/Cyclin T1: Enzyme concentration: 5 nM; ATP concentration: 10 μM; Incubation time: 17 hr.

CDK6/Cyclin D3 = CDK6/Cyclin D3 (Homo sapiens (Human), UniProt Q00534); test: CDK6/Cyclin D3 kinase assay (Nanosyn, Caliper microfluidic); details: 12-point dose-response, singlicate, at Km for ATP; ATP 300 μM; 3 hr
Sequence of CDK6/Cyclin D3 (Q00534 whole entry): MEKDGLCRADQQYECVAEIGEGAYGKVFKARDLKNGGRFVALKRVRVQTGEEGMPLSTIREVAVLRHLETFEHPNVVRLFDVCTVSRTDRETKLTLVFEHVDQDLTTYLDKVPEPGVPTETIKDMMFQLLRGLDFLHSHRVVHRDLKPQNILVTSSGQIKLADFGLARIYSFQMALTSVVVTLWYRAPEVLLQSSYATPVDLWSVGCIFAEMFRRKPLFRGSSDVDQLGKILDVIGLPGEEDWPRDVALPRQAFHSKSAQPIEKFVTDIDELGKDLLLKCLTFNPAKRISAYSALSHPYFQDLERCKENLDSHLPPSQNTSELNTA
Sequence of CDK6/Cyclin D3 (P30281 whole entry partner): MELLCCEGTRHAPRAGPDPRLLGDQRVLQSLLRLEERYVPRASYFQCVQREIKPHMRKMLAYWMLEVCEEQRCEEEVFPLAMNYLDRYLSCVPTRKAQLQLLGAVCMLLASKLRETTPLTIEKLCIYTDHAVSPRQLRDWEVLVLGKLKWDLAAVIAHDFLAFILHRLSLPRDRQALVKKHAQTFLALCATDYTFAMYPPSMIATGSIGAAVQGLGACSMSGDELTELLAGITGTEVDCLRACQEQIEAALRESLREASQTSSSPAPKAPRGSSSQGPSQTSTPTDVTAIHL
Experimental: as §1
CDK6/Cyclin D3: Enzyme concentration: 2 nM; ATP concentration: 300 μM; Incubation time: 3 hr.

CDK4/Cyclin D1 = CDK4/Cyclin D1 (Homo sapiens (Human), UniProt P11802); test: CDK4/Cyclin D1 kinase assay (Nanosyn, Caliper microfluidic); details: 12-point dose-response, singlicate, at Km for ATP; ATP 200 μM; 3 hr
Sequence of CDK4/Cyclin D1 (P11802 whole entry): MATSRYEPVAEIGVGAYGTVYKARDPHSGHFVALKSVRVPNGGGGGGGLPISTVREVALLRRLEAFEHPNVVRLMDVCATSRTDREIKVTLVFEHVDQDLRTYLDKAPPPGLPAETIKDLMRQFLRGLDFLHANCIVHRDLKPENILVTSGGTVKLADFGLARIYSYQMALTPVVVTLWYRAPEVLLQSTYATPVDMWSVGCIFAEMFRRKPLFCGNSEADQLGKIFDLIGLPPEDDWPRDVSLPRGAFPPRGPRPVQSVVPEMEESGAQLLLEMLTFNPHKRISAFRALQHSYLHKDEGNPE
Sequence of CDK4/Cyclin D1 (P24385 whole entry partner): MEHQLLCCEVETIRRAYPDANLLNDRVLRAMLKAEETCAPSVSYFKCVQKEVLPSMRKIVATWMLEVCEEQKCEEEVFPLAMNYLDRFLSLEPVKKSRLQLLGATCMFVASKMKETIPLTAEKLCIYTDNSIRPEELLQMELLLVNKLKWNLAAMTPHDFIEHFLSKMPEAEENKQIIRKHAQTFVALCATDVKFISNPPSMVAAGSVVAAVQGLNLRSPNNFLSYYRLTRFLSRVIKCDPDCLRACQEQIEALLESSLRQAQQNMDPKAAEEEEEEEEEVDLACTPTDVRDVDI
Experimental: as §1
CDK4/Cyclin D1: Enzyme concentration: 1 nM; ATP concentration: 200 μM; Incubation time: 3 hr.

Sequence of CDK1/Cyclin B1 (P06493 whole entry): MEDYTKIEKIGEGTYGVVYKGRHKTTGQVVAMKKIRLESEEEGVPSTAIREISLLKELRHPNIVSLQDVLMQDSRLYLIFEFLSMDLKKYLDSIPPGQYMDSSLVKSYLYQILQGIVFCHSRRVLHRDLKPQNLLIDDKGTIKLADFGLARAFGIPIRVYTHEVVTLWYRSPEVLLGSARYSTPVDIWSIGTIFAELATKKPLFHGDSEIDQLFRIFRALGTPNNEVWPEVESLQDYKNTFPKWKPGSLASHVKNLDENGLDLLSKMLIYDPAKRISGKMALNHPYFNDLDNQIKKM
Sequence of CDK1/Cyclin B1 (P14635 whole entry partner): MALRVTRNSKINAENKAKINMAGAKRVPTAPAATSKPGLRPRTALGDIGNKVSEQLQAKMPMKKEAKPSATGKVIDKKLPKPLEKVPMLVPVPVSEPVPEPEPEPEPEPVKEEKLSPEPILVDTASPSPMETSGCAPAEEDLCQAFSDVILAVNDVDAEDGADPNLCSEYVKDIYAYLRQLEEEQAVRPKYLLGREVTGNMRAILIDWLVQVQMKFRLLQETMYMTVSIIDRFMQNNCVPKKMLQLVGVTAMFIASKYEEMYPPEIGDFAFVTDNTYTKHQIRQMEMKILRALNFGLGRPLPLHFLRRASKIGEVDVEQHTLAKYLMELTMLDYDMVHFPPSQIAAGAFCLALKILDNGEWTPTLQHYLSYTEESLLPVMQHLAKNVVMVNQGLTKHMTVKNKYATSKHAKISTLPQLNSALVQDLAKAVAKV

pIC50 (CDK1/Cyclin B1): 7.70
pIC50 (CDK2/Cyclin E): 8.57
pIC50 (CDK7): 6.08
pIC50 (CDK2/Cyclin A): 8.77
pIC50 (CDK3-CYCLIN-E): 7.74
pIC50 (CDK5-p25): 7.77
pIC50 (CDK9/Cyclin T1): 8.00
pIC50 (CDK6/Cyclin D3): 6.82
pIC50 (CDK4/Cyclin D1): 7.48
SMILES: NS(=O)(=O)c1ccc(Nc2ncc3cc4n(c3n2)C2(CCCCC2)C(=O)N[C@H]4CF)cc1 [Compound 18, (R)-4-((6′-(fluoromethyl)-8′-oxo-7′,8′-dihydro-6′H-spiro[cyclohexane-1,9′-pyrazino[1′,2′:1,5]pyrrolo[2,3-d]pyrimidin]-2′-yl)amino)benzenesulfonamide]
